The source of these data is PubChem BioAssay (NCI).

Test systems include BT-549 breast; K-562 leukemia; NCI-H522 lung; MOLT-4 leukemia; 786-0 renal; KM12 colon; OVCAR-3 ovarian; A498 renal; TK-10 renal; HOP-92 NSCLC.
Common to all, as to assay: NCI tumour cell line growth inhibition, 48 h

Where “and” joins values, the source holds several entries; their conditions need not be identical. Equal entries are not always repeated.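 96-well plates; 48 h exposure; 5 concentrations. Endpoints by linear interpolation between flanking doses. Not reached: highest tested concentration assigned. GI50 is the concentration that inhibits growth by half. Definition used: TGI = concentration required for complete inhibition of growth.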 Bounds are passed on as bounds.

As to `O=c1cc(-c2ccccc2)oc2cc(OCCCCCN3CCOCC3)cc(O)c12`, the GI50 with BT-549 breast is 77.5 µM; with K-562 leukemia, 29 µM; in the assay on NCI-H522 lung, 31 µM; in the assay on MOLT-4 leukemia, 99.7 µM; in the assay with 786-0 renal it was 30 µM; with KM12 colon, over 100 µM. Besides, the GI50 with OVCAR-3 ovarian is over 100 µM; with A498 renal it was 33.7 µM; in the assay on TK-10 renal it was 51.4 µM; in the assay on HOP-92 NSCLC, 11 µM. Further, the TGI in the assay on BT-549 breast is over 100 µM; in the assay on K-562 leukemia it was over 100 µM; with NCI-H522 lung it was 94.9 µM; in the assay with MOLT-4 leukemia it was over 100 µM; in the assay with 786-0 renal it was over 100 µM; in the assay with KM12 colon, over 100 µM. The TGI in the assay on OVCAR-3 ovarian is over 100 µM; with A498 renal it was 82.9 µM; in the assay on TK-10 renal, over 100 µM; in the assay with HOP-92 NSCLC, 26.6 µM.
Consider `COC(=O)c1c2c(c(C)[n+]([O-])c1C)C(=O)C(NCc1ccc(F)cc1)=CC2=O`, for which the GI50 was 1.73 µM in the assay on BT-549 breast; 2.43 µM in the assay with K-562 leukemia; 1.7 µM in the assay with NCI-H522 lung; 1.98 µM in the assay with MOLT-4 leukemia; 2.85 µM in the assay with 786-0 renal; 1.66 µM in the assay with KM12 colon. In addition, the GI50 is 0.319 µM in the assay on OVCAR-3 ovarian, 1.57 µM in the assay with A498 renal, 3.32 µM in the assay on TK-10 renal and 2.31 µM in the assay on HOP-92 NSCLC. The TGI was 3.78 µM in the assay with BT-549 breast; over 100 µM in the assay with K-562 leukemia; 4.02 µM in the assay on NCI-H522 lung; 5.33 µM in the assay on MOLT-4 leukemia; 30.1 µM with 786-0 renal; 6.49 µM in the assay with KM12 colon. Further, the TGI was 1.11 µM in the assay with OVCAR-3 ovarian, 3.29 µM with A498 renal, 36.7 µM in the assay with TK-10 renal and 4.61 µM in the assay with HOP-92 NSCLC.
In the case of `CC(=O)O[C@@H]1C2=C(C)C3(CC3)[C@@](C)(O)C(=O)C2=C[C@@]1(C)CO`, the GI50 in the assay on BT-549 breast was 0.509 µM; in the assay with K-562 leukemia, 0.482 µM; in the assay with NCI-H522 lung, 0.496 µM; in the assay on MOLT-4 leukemia, 1.53 µM; in the assay on 786-0 renal, 2.04 µM; with KM12 colon it was 1.32 µM. The GI50 in the assay on OVCAR-3 ovarian was 0.319 µM; in the assay with A498 renal, 1.8 µM; in the assay on TK-10 renal it was 2.6 µM; in the assay with HOP-92 NSCLC, 1.87 µM. The TGI with BT-549 breast was 2.79 µM; in the assay on K-562 leukemia, over 100 µM; with NCI-H522 lung it was 4.44 µM; with MOLT-4 leukemia, over 100 µM; in the assay with 786-0 renal, 6.1 µM; in the assay on KM12 colon it was 8.59 µM. Moreover, the TGI with OVCAR-3 ovarian is 1.16 µM; with A498 renal, 3.53 µM; in the assay with TK-10 renal it was over 100 µM; with HOP-92 NSCLC it was 5.75 µM.
Consider `Oc1ccc(Cl)cc1Sc1cc(Cl)ccc1O`, for which the GI50 is 3 µM with BT-549 breast; 3.8 µM in the assay on K-562 leukemia; 2.41 µM in the assay on NCI-H522 lung; 3.77 µM in the assay with MOLT-4 leukemia; 11.9 µM in the assay with 786-0 renal; 3.26 µM in the assay on KM12 colon. The GI50 was 2.79 µM in the assay on OVCAR-3 ovarian, 2.73 µM with A498 renal, 8.02 µM with TK-10 renal and 0.421 µM with HOP-92 NSCLC. Further, the TGI with BT-549 breast is 33.6 µM and 9.29 µM; in the assay on K-562 leukemia, over 100 µM; in the assay with NCI-H522 lung it was 13.6 µM and 9.17 µM; in the assay on MOLT-4 leukemia, > 100 µM and 24.7 µM; in the assay on 786-0 renal, 33 µM and 25.2 µM; in the assay on KM12 colon it was 31.4 µM and 9.18 µM. The TGI is 15.4 µM and 6.8 µM in the assay on OVCAR-3 ovarian; 24.2 µM and 7.72 µM with A498 renal; 31.3 µM and 31.1 µM in the assay with TK-10 renal; 9.71 µM and 3.43 µM in the assay with HOP-92 NSCLC.
In the case of `NC(Cc1cccnn1)C(=O)O` (stereo not given), the TGI in the assay on BT-549 breast, with K-562 leukemia, with NCI-H522 lung, with MOLT-4 leukemia, in the assay on 786-0 renal and in the assay on KM12 colon was over 100 µM each time. Further, the TGI with OVCAR-3 ovarian, with A498 renal, in the assay with TK-10 renal and with HOP-92 NSCLC was over 100 µM each time.
As to `C#CCOc1cccc(Nc2ncnc3cc(NC(=O)C=C)ccc23)c1`, the GI50 is 5.3 µM in the assay with BT-549 breast; 2.79 µM in the assay with K-562 leukemia; 2.8 µM with NCI-H522 lung; 4.56 µM with MOLT-4 leukemia; 5.97 µM in the assay with 786-0 renal; 10.4 µM with KM12 colon. Besides, the GI50 in the assay with OVCAR-3 ovarian was 3.7 µM; with A498 renal, 4.25 µM; with TK-10 renal it was 4.05 µM; in the assay on HOP-92 NSCLC, 4.77 µM. For the same molecule, the TGI was over 100 µM in the assay with BT-549 breast; over 100 µM in the assay on K-562 leukemia; 34.2 µM in the assay with NCI-H522 lung; 69.1 µM with MOLT-4 leukemia; 48.1 µM with 786-0 renal; over 100 µM in the assay on KM12 colon. The TGI with OVCAR-3 ovarian was found to be 74.6 µM; in the assay with A498 renal, 46.6 µM; in the assay on TK-10 renal, 35.6 µM; in the assay with HOP-92 NSCLC it was 58.4 µM.
On to `CC(C)(C)C(=O)c1c(C(F)(F)F)n([O-])c2cc(Cl)c(Cl)cc2[n+]1=O`, for which the GI50 is 0.769 µM in the assay with BT-549 breast; 0.582 µM with K-562 leukemia; 0.538 µM in the assay on NCI-H522 lung; 0.437 µM in the assay on MOLT-4 leukemia; 0.466 µM with 786-0 renal; 0.19 µM in the assay on KM12 colon. Besides, the GI50 with OVCAR-3 ovarian is 0.125 µM; in the assay on A498 renal, 1.33 µM; in the assay on TK-10 renal, 0.842 µM; in the assay on HOP-92 NSCLC, 1.47 µM. Moreover, the TGI in the assay on BT-549 breast came out at 2.11 µM; with K-562 leukemia, 1.15 µM; in the assay on NCI-H522 lung, 1 µM; in the assay on MOLT-4 leukemia it was 0.987 µM; in the assay on 786-0 renal, 0.882 µM; with KM12 colon, 0.45 µM. Moreover, the TGI in the assay with OVCAR-3 ovarian is 0.363 µM; in the assay on A498 renal, 2.6 µM; with TK-10 renal it was 2.26 µM; with HOP-92 NSCLC, 2.78 µM.
Consider `C=C1C(=O)O[C@@H]2CC(CO)=C([C@@H](C)CCCO)[C@@H](OC(=O)/C(C)=C\C)[C@H]12`, for which the TGI in the assay on BT-549 breast was over 90.6 µM; in the assay with K-562 leukemia, 31.2 µM; in the assay with NCI-H522 lung, 15.3 µM; in the assay on MOLT-4 leukemia it was 33.4 µM; in the assay on 786-0 renal, 52.1 µM; in the assay with KM12 colon, 43.7 µM. In addition, the TGI in the assay on OVCAR-3 ovarian was 26.2 µM; with A498 renal, over 74.1 µM; in the assay on TK-10 renal, 45.9 µM; with HOP-92 NSCLC, 56.7 µM.
